Data: ChEMBL document CHEMBL1221377, “SAR development of a series of 8-azabicyclo[3.2.1]octan-3-yloxy-benzamides as kappa opioid receptor antagonists. Part 2” (Bioorg Med Chem Lett, 2010)

Experiments:
[1] = Ratio of drug level brain to plasma in Sprague-Dawley rat at 5 umol/kg, iv; format: ADME; settings: brain and plasma, read-out: BPR
[2] = Apparent permeability from apical to basolateral side of MDCK cells expressing MDR1; format: ADME, cell-based, Canis lupus familiaris; settings: dog
[3] = Intrinsic clearance in human liver microsomes; format: ADME, Microsome
[4] = Intrinsic clearance in rat liver microsomes; format: ADME, Microsome
Rattus norvegicus = assay: Clearance in Sprague-Dawley rat plasma at 2 umol/kg, iv; format: ADME, organism-based; settings: in vivo
[5] = Half life in Sprague-Dawley rat at 2 umol/kg, iv; format: ADME, organism-based; settings: in vivo
[6] = Volume of distribution at steady state in Sprague-Dawley rat at 2 umol/kg, iv; format: ADME, organism-based; settings: in vivo, read-out: Vdss
[7] = Ratio of drug level brain to plasma in Sprague-Dawley rat at 2 umol/kg, iv; format: ADME; settings: brain and plasma, read-out: BPR
[8] = Oral bioavailability in Sprague-Dawley rat at 2 umol/kg; format: ADME, organism-based; settings: in vivo

| SMILES | Kp [1] | Papp A→B [2] | microsomal CLint [3] | microsomal CLint [4] | CL (Rattus norvegicus) | half-life [5] | Vd [6] | Kp [7] | bioavailability [8] |
| --- | --- | --- | --- | --- | --- | --- | --- | --- | --- |
| CN(C)C(=O)N[C@H]1CC[C@@H](CCN2[C@@H]3CC[C@H]2C[C@@H](Oc2cccc(C(N)=O)c2)C3)CC1 | 0.22 | 19 nm/s | < 4 µL/min/mg | 30 µL/min/mg | – | – | – | – | – |
| NC(=O)c1cccc(C[C@H]2C[C@H]3CC[C@@H](C2)N3Cc2ccccc2)c1 | – | 140 nm/s | < 4 µL/min/mg | 65 µL/min/mg | 124 µL/min/mg | 1.3 h | 6.6 L/kg | 1.9 | 5% |
